Values quoted from earlier work in patent US12728131B2, “Compositions for the treatment of glaucoma and ocular hypertension” (Nicox S.A., priority 2020, dated 2026).
Like-named read-outs stand apart in the source and are kept apart here.

Details: phase 2 dose-ranging VOYAGER study

SMILES	reduction in mean diurnal IOP (0.024%) [mmHg]	reduction in mean diurnal IOP (0.005%) [mmHg]
O=C(CCC/C=C\C[C@@H]1[C@@H](CC[C@@H](O)CCc2ccccc2)[C@H](O)C[C@@H]1O)OCCCCO[N+](=O)[O-] [latanoprostene bunod]	9.0	
CC(C)OC(=O)CCC/C=C\C[C@@H]1[C@@H](CC[C@@H](O)CCc2ccccc2)[C@H](O)C[C@@H]1O [latanoprost, propan-2-yl (Z)-7-[(1R,2R,3R,5S)-3,5-dihydroxy-2-[(3R)-3-hydroxy-5-phenylpentyl]cyclopentyl]hept-5-enoate]		7.77
